Source: patent US20240398813A1, “PHARMACEUTICAL COMPOSITION FOR PREVENTING OR TREATING OVERACTIVE BLADDER” (GWANGJU INSTITUTE OF SCIENCE AND TECHNOLOGY, priority 2021, published 2024)

Tests used:
[1] = target: T1, hyperactive mutant BKCa channels (hSlo G803D/N806K) stably expressed in AD 293 cells (Homo sapiens, UniProt Q12791, G856D/N859K); assay: Cell-based fluorescence assay (FluxOR Potassium Ion Channel Assay) of BKCa channel activation; details: fit of dose-response curve of initial rates; read-out: Apparent EC50 based on vi
T1 construct: expressed in transfected cells
Method: AD 293 cells, which are derivatives of the commonly used HEK 293 cell line and stably express hyperactive mutant BKCa channels (hSlo G803D/N806K) to sensitively detect the effect (Lee et al., 2013), were cultured in Dulbecco' modified Eagle medium (Hyclone, Logan, Utah, […]) supplemented with 10% fetal bovine serum, and selected with 1 mg/mL Geneticin (Gibco, Amarillo, TX, USA). 20,000 cells per well were seeded on a 96-well clear-bottom black plate (Corning, New York, NY, USA) coated with poly-D-lysine (Gibco). BKCa channel activity was measured using the cell-based fluorescence assay, FluxOR Potassium Ion Channel Assay (Thermo Fisher Scientific, Waltham, MA, USA). Experimental procedures were performed according to the manufacturer's instructions. The cells were treated with test compounds dissolved in assay buffer for 15 minutes. Fluorescence was measured using a FlexStation3 multimode microplate reader (Molecular Devices, Silicon Valley, CA, USA) and SoftMax Pro (Molecular Devices). Excitation and emission wavelengths were set to 485 nm and 528 nm, respectively. Fluorescence signals were acquired every 2 seconds for 120 seconds and normalized by the relative fluorescence unit (RFU). The efficacy of a channel activator was determined by analyzing changes (ΔRFU) in the RFU for 80 seconds after channel stimulation.
Activation effects of the synthesized compounds on BKCa channels were evaluated using cell-based fluorescence assay. NS11021 was used as the positive control. The effects were determined based on the initial rate (vi) of channel activation and the apparent EC50 value obtained from fitting data of the dose-response curve. Here, Vi means change values for 4 seconds at the start of channel opening (vi={RFU(t=24 s)−RFU(t=20 s)}/4 s). […]

[2] = test system: Spontaneously hypertensive rats (SHR); assay: In vivo model of OAB: urination in spontaneously hypertensive rats after oral administration; set-up: species or system rat
Method: Male rats with body weights of 300 to 350 g were deprived of food and water overnight before the experiment, and then were randomly divided into a drug administration group and a control group. All animals were provided free access to water for 2 hours, and then 10 mL/kg of vehicle solution [DMSO:PEG400:distilled water=5:40:55 (v/v)] as a test substance were orally administered. After oral administration of the test substance, the rats were placed in a metabolic cage and the number of urinations and urine volume were measured for 3 hours.
The in vivo treatment effects of the compounds for […] were investigated in spontaneously hypertensive rats (SHR) with OAB symptoms after oral administration. Wistar-Kyoto rats (WKY) were used as the healthy animal control, and urination frequency was increased more than 2.8 times in SHR compared to WKY. Compound 208 reduced the urination frequency in SHR (50 mg/kg) by 33%, which is quite close to the urination frequency of the normal group (see FIG. 18).

T1 sequence (Q12791 whole entry G856D/N859K): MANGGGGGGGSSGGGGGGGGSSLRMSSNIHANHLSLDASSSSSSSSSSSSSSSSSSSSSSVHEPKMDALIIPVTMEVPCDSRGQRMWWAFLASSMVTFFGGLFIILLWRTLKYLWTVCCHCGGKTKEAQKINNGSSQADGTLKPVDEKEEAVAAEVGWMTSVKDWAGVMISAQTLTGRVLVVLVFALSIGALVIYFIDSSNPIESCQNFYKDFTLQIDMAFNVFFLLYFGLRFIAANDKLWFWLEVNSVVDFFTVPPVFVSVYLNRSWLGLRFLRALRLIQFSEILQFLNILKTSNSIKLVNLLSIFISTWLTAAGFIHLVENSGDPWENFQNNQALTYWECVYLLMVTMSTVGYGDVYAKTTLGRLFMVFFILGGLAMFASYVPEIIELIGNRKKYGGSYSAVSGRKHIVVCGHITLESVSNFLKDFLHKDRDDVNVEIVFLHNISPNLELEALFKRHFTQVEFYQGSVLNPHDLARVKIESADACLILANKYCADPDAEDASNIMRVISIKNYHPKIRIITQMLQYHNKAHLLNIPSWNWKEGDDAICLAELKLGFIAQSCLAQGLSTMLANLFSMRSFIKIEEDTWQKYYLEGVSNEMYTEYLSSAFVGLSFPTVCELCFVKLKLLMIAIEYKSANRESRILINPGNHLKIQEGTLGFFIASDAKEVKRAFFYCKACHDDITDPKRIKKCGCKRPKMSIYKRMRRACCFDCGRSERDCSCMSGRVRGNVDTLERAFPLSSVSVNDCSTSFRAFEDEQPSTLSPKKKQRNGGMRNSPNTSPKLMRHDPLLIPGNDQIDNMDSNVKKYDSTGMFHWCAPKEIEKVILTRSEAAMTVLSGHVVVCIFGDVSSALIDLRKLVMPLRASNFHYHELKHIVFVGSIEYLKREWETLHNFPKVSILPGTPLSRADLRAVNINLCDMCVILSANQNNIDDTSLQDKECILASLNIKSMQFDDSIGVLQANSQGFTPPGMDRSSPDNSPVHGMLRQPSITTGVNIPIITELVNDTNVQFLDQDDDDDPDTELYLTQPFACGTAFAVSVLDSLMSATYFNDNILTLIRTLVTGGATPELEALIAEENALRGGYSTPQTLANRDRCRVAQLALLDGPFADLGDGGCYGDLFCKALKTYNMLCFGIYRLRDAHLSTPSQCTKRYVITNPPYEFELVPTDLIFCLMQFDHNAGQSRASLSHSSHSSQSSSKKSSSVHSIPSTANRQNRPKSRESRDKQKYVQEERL

With `O=C(Nc1cccc(C(F)(F)F)c1)c1sc(=S)n2c1[nH]c(=O)c1cc(Br)ccc12` [Compound 208, 7-bromo-5-oxo-1-thioxo-N-(3-(trifluoromethyl)phenyl)-4,5-dihydro-1H-thiazolo[3,4-a]quinazoline-3-carboxamide] as the compound, how does the EC50 [1] read?
The EC50 was 2890 nM.

What about the “reduction of urination frequency” value ([2]; 50 mg/kg oral) of the same compound?
The value was 33%.

`O=C(O[C@H]1CN2CCC1CC2)N1CCc2ccccc2[C@@H]1c1ccccc1` [solifenacin succinate, reference compound] was tested. Which number of urinations ([2]; 5 mg/kg oral, 3 hours, SHR vehicle 8.2) did it give?
The number of urinations was 4.2.
